These are literature values, as cited in patent US8440245B2, “Methods for making nutritional compositions comprising curcuminoids” (priority 2009, dated 2013).

For series [1] the following is noted: percentage of ingested curcuminoid actually metabolized by the body.
Another series has as its system microtubule assembly. The conditions noted are these: @ 40 μm.

For the compound `O=C(/C=C/c1ccc(O)cc1)CC(=O)/C=C/c1ccc(O)cc1` [BDMC, bisdemethoxycurcumin], the “Metabolic Recovery” value in series [1] is roughly 75%. For the compound `COc1cc(/C=C/C(=O)CC(=O)/C=C/c2ccc(O)c(OC)c2)ccc1O` [Curcumin, curcumin], in the series with microtubule assembly, the “Inhibition of Microtubule Assembly” value was 50% @.

Consider `COc1cc(/C=C/C(O)=C/C(=O)/C=C/c2ccc(O)cc2)ccc1O` [DMC, demethoxycurcumin], for which, in series [1], the “Metabolic Recovery” value is given as roughly 50%.
